Laboratory results from paper PMC9098178, “SAR of Novel 3-Arylisoquinolinones: meta-Substitution on the Aryl Ring Dramatically Enhances Antiproliferative Activity through Binding to Microtubules” (Journal of Medicinal Chemistry, 2022).
Where two headings read alike, the source gives them in different places.

Columns and labels:
HepG2 cells = assay: Clonogenic assay; type: cell-based, human; details: 14 days
Procedure: HepG2 cells were treated with varying concentrations of 2–6 added once and kept for 14 days before counting colonies and calculating surviving fraction (Figure 2).
The ability of potential anticancer agents to prevent unlimited cell division and induce reproductive cell death was assessed using clonogenic assay as previously described.[57] In brief, HepG2 cells were seeded into six-well plates at a density of 1000 single cells/well and incubated for 10–12 h to adhere. The cells were then treated with DMSO (control) or a range of concentrations of 2–6 for 14 days. Afterward, the produced colonies were washed with phosphate-buffered saline (PBS), fixed with 70% ethanol for 20 min, and stained with 0.5% (w/v) methylene blue (prepared in 70% methanol). Following washing with water and drying, colonies (≥50 cells) were manually counted. The colony-forming efficiency (CFE) of cells was calculated by dividing the number of colonies formed by the number of cells seeded for each condition. The surviving fraction was determined by dividing the CFE of the treated cells by CFE of the control cells. A survival curve was generated by plotting the log of drug concentrations versus surviving fraction.

HUVECs [1] = assay: Endothelial tube disruption assay; type: cell-based, human; details: 16 h treatment after 4 h tube formation; concentration-dependent, more pronounced at 1 and 2 μM of 4
Procedure: (§1) Moreover, networks of HUVEC-based tubes were exposed for 16 h to different concentrations of 4 and 5 to assess their potential tube disruptive effects (Figure 8B). […] The disruption was more pronounced at 1 and 2 μM of 4, as evidenced by a decrease in tube junctions and formation of short distorted tubes.
(§2) Matrigel (Corning, Cat# 356237) was gently added into 96-well plates at a volume of 70 μL/well and allowed to gel at 37 °C for 30 min. A mixture of HUVECs (25 × 10^3) and DMSO, 4 (0.5, 1, 2 μM), or 5 (25 μM) was then dispensed over the gels and incubated for 16 h. Next, the wells were filled with PBS and covered with a coverslip to diminish the meniscus effect, allowing proper examination of the endothelial tube networks under a light microscope (Optika XDS-3, Italy). Bright-field images of 4x magnification were captured and then processed using Fiji ImageJ software. For the assessment of endothelial tube disruption, HUVECs at a density of 25 × 10^3 cells/well were seeded onto Matrigel and incubated for 4 h to align into tubes. The cells were then treated with DMSO, 4, or 5 for 16 h prior to the microscopic examination as mentioned above.

HUVECs [2] = assay: Endothelial cell tube formation assay; type: cell-based, human; details: 16 h, Matrigel
Procedure: as §1, §2

[3] = test system: panel of 59 cancer cell lines; assay: NCI one-dose screen; type: cell-based; details: 10 µM, 48 h, SRB
Procedure: (§3) In light of this substantial change in activity between the meta and para compounds, a more comprehensive analysis of the antiproliferative activity was performed for the meta-/para-3-arylisoquinolinone pairs 2 and 3, 4, and 5, as well as 6. A panel of breast (MDA-MB-231), liver (HepG2, SNU423), lung (A549), and colon (HCT116) cancer cell lines were treated with the five 3-arylisoquinolinone analogs for 96 h followed by the SRB assay. The dose–response curves (including those for MCF-7) are presented in Figure S22, and their relevant IC50 values are listed in Table 1. […] The differential activity between meta- and para-3-arylisoquinolinones was reproduced in the National Cancer Institute (NCI) one-dose screen using a panel of 59 cancer cell lines (Figure S23).
Figure S23. NCI One-Dose Mean graphs for 3-arylisoquinolinones 4, 5 […]
In NCI one-dose screen, the 59 cell lines (classified into 9 groups) were exposed to 4, 5 and 7 at a single dose of 10 µM for 48 h followed by SRB assay. The one-dose data were reported as a mean graph of the growth percentage of treated cells, as relative to the cell number of both the no-drug control and the zero time (before adding the test agent). Values between 0 and 100 indicate growth inhibition, whereas values less than 0 indicate lethality. For instance, a value of 40 means 60% growth inhibition; 0, no growth throughout the experiment; -40, 40% lethality; and - 100, all cells are dead.1
A) One-dose mean graph for 3-arylisoquinolinone 4 (NSC number 795055)

SNU423 = assay: SRB antiproliferative assay, SNU423; type: cell-based, human; details: Homo sapiens
Procedure: as §3
All cell lines used in the study were human-derived and purchased from ATCC (Manassas, USA). Breast adenocarcinoma MCF-7 and MDA-MB-231 cell lines were cultured in DMEM. Hepatocellular carcinoma HepG2 and SNU423 cell lines were grown in MEME combined with 1% (v/v) nonessential amino acids and RPMI supplemented with 2 mM glutamine, respectively. Lung adenocarcinoma A549 and colorectal carcinoma HCT116 cells were grown in RPMI (+2 mM glutamine). All previous media were further supplemented with 10% heat-inactivated fetal bovine serum. The immortalized, normal liver THLE-3 cells were grown in BEGM (Lonza, Cat# CC-3170) onto precoated vessels according to ATCC’s instructions. Human umbilical vein endothelial cells (HUVECs) were cultured in EGM-2 (Lonza, Cat# CC-3162). All of the cells were maintained at 37 °C and 5% CO2 in a humidified incubator.
Screening of the antiproliferative activity of 3-arylisoquinolinones was performed using the SRB assay as previously described.[56] Exponentially growing HepG2, SNU423, MDA-MB-231, MCF-7, A549, HCT116, THLE-3, and HUVECs were seeded in 96-well plates at densities of 3000, 2000, 1500, 2500, 1000, 1000, 4000, and 4000 cells/well, respectively. These densities were experimentally selected so that the DMSO-treated cells (control) were approximately 80–90% confluent at the assay’s endpoint, and their optical density (OD) values fell within the assay’s linear range. […] After treatment, cell monolayers were fixed with 10% (w/v) trichloroacetic acid for 1 h at 4 °C, washed, and dried. Then, the cells were exposed to 0.4% (w/v) SRB dye (prepared in 1% (v/v) acetic acid; Botium, Cat# 80100) for 15 min followed by several 1% acetic acid washing and then drying. Finally, the cellular protein-bound SRB was thoroughly dissolved in 10 mM Tris base, and the OD values were read at 510 nm using a plate reader (μQuant Microplate Spectrophotometer, Biotek, U.K.) coupled with Gen5 software (BioTek, U.K.). Compound-induced changes in cell growth were inferred from changes in OD values. Cell growth was calculated using the following formula: cell growth (%) = (ODtest/ODcontrol) × 100.

[4] = SNU-423, 96 h treatment, mean ± SEM, read-out: IC50 SNU423

SMILES: O=c1[nH]c(-c2ccc(F)cc2)cc2cc(F)ccc12 [compound 5, 6-Fluoro-3-(4-fluorophenyl)isoquinolin-1(2H)-one]
- surviving fraction (HepG2 cells; concentrations as high as 20 μM): 0.5
- disruption of preestablished capillary-like tubes (HUVECs [1]): not observed
- effect on capillary-like tube formation (HUVECs [2]; 25 μM): did not significantly affect the process of tube formation
- inhibition of growth in NCI one-dose screen [3]: less active
- IC50 (SNU423; [4]): > 50 µM

SMILES: O=c1[nH]c(-c2cccc(F)c2)cc2cc(F)ccc12 [compound 4, 6-Fluoro-3-(3-fluorophenyl)isoquinolin-1(2H)-one]
- colony formation (HepG2 cells; 0.5 or 1 μM): No colonies were apparent
- disruption of preestablished capillary-like tubes (HUVECs [1]): able to disrupt the preestablished capillary-like tubes
- effect on capillary-like tube formation (HUVECs [2]; 2 μM): markedly suppressed tube formation
- inhibition of growth in NCI one-dose screen [3]: far more potent in the inhibition of growth of many of the cell lines
- IC50 (SNU423; SNU-423, 24 h +drug/72 h –drug treatment, read-out: mean IC50 ± SEM, SNU423): 0.36 ± 0.01 µM
- IC50 (SNU423; [4]): 0.25 ± 0.03 µM
